Results published in patent publication US8455440B2, “Combination anticoagulant therapy with a compound that acts as a factor Xa inhibitor” (Millennium Pharmaceuticals, Inc., priority 2007, dated 2013).

How the values were obtained:
p-glycoprotein = p-glycoprotein (Homo sapiens, UniProt P08183); assay: In vitro evaluations of p-glycoprotein substrate; type: in vitro ADME
[1] = Plasma concentrations of Compound A in telemeterized dogs; type: in vivo; settings: combination with verapamil
From the text: It is further contemplated that in patients being treated for atrial fibrillation, blood pressure lowering drugs such as beta blockers or calcium channel blockers and Compound A may be used concomitantly. Drugs like verapamil are known inhibitors of p-glycoprotein function. […] See Example 10.
The study was designed to evaluate the in vivo effect of Compound A upon co-administration with a selective L type calcium channel blocker, verapamil. Three beagle dogs were implanted with Data Science Telemetry transmitters (DSI model # TL11M2-D70-PCT) to measure conscious (un-anaesthetized) and unrestrained systolic and diastolic blood pressure following oral dosing with Compound A, verapamil or a combination of the two. The study design was a three way crossover with one week between doses to ensure complete elimination of residual agents from the dogs' circulatory system. Data was analyzed for a twelve hour period, starting with one hour pre-oral dosing of Compound A and ending with eleven hours post-dosing. Data acquisition and analysis was performed using LDS Life Science Suite Ponemah P3 plus V 4.20 software with results reported as 10 minute averages for each animal.

[2] = tested on: ADP induced platelet aggregation; assay: Ex vivo platelet aggregation induced by 10 μM ADP; type: in vivo; settings: Rattus norvegicus, read-out: % inhibition of platelet aggregation
Experimental: In this experiment, the ability of Compound A to maintain vessel patency under arterial flow conditions in ferric chloride induced thrombosis in rat carotid artery is compared to that achieved by clopidogrel. Compound A was administered by intravenous infusions and clopidogrel was dosed orally for three days. Ex vivo platelet aggregation induced by 10 μM ADP and clotting times (prothrombin time, PT and activated partial thromboplastin times, aPTT) were measured over the experimental time course (90 min) in all animals.
This level of platelet inhibition is approximately equivalent to that attained by clopidogrel's effect on human platelets at the therapeutic dose in clinical use (75 mg per day). […] Time to occlusion was measured in animals that had vessel occlusion.

[3] = tested on: ferric chloride induced thrombosis in rat carotid artery; assay: Ferric chloride induced thrombosis in rat carotid artery; type: in vivo; settings: for % Did not occlude (inhibition of rat thrombosis) / Number of animals without occlusion: intravenous infusion; for Number of animals without occlusion: 10 animals; for time to occlusion: animals that had vessel occlusion
thrombin generation = assay: Thrombin generation assay in platelet rich plasma (PRP); type: biochemical, human
Experimental: PRP and PPP were prepared by spinning the anticoagulated blood at ˜100×g or 1000×g for 20 minutes, respectively, at room temperature. Platelet counts in PRP were adjusted with homologous PPP to about 200,000 platelets/μL. For thrombin generation in 100 μL reaction mixture, 75 μL PRP was first mixed with CaCl2, convulxin, and Z-Gly-Gly-Arg-aminomethylcoumarin (Z-GGR-AMC, a thrombin fluorogenic substrate) for 3 minutes at 37° C., followed by adding tissue factor (Innovin, Dade Behring) to initiate the generation of thrombin. A typical reaction mixture contained 15 mM Ca^2+, 0.1 μg/mL convulxin, 100 μM Z-GGR-AMC, and 0.1 nM TF (tissue factor) (Innovin). Thrombin formation was monitored continuously at 37° C. by a fluorometric plate reader (Molecular Devices) measuring the relative fluorescence units (RFU). Inhibitors were pre-incubated with plasma for 20 minutes at room temperature before adding CaCl2 and convulxin.
Non-ASA represents result from donors free of aspirin. ASA represents results from donors taken aspirin for at least three days. % Inhibition was calculated by normalization of mean RFU (n=5) to Non-ASA at 0 nM Compound A.

[4] = tested on: venous thromboembolism (VTE); assay: Prospective randomized trial for prevention of venous thromboembolic events after total knee replacement; settings: for VTE %: 10-14 days
From the text: Safety endpoints included the incidence of major and clinically significant nonmajor bleeds through the day after venography. All efficacy and bleeding endpoints were adjudicated by a blinded, independent central adjudication committee.

cytokine release = assay: Ex vivo assay of human cytokine release in collagen activated whole blood; type: cell-based; settings: Compound A single treatment (50 to 500 nM), blood of healthy untreated donors, collagen 4 μg/mL
Experimental: An ex vivo assay system of human cytokine release was used to test whether inhibition of factor Xa should augment the effect of reduction of inflammation elicited by standard anti-inflammatory drugs, such as aspirin.
Following addition of Compound A (50 to 500 nM) to the blood samples, control and treated samples were activated by addition of collagen (Chronolog, 4 μg/mL) and gently rotated at 37° C. for 45 min. At the end of the activation period, blood samples were centrifuged at 13,000 rpm (15,000 g) for 5 min in an Eppendorf 5415G centrifuge. Plasma was removed, treated with protease inhibitor cocktail (Roche) and stored frozen at −80° C. Cytokines released from the blood cells were quantitated in a Multiplexed Biomarker Immunoassay for Luminex Instrumentation (Millipore USA). […] For example, in the plasma samples from six donors, the mean amount of interleukin 4 was 28.4 pg/mL in the untreated control and 26.8 to 29.4 pg/mL in the Compound A treated samples. […] Thus in this ex vivo system Compound A was capable of providing additional beneficial effect over a widely used anti-inflammatory agent.

[5] = tested on: systolic and diastolic blood pressure; assay: Telemetry blood pressure in conscious beagle dogs, three way crossover; type: in vivo
Experimental: The study design was a three way crossover with one week between doses to ensure complete elimination of residual agents from the dogs' circulatory system. […] Data acquisition and analysis was performed using LDS Life Science Suite Ponemah P3 plus V 4.20 software with results reported as 10 minute averages for each animal.
AUC was derived from the systolic and diastolic baseline. […] Negative values represent a decrease in blood pressure relative to the baseline value.

[6] = Dog # 1, oral, Compound A 3 mg/kg, verapamil 10 mg/kg
[7] = Dog # 2, oral, Compound A 3 mg/kg, verapamil 10 mg/kg
[8] = Dog # 3, oral, Compound A 3 mg/kg, verapamil 10 mg/kg
[9] = three dogs, oral, Compound A 3 mg/kg, verapamil 10 mg/kg

Chain of p-glycoprotein (P08183 whole entry): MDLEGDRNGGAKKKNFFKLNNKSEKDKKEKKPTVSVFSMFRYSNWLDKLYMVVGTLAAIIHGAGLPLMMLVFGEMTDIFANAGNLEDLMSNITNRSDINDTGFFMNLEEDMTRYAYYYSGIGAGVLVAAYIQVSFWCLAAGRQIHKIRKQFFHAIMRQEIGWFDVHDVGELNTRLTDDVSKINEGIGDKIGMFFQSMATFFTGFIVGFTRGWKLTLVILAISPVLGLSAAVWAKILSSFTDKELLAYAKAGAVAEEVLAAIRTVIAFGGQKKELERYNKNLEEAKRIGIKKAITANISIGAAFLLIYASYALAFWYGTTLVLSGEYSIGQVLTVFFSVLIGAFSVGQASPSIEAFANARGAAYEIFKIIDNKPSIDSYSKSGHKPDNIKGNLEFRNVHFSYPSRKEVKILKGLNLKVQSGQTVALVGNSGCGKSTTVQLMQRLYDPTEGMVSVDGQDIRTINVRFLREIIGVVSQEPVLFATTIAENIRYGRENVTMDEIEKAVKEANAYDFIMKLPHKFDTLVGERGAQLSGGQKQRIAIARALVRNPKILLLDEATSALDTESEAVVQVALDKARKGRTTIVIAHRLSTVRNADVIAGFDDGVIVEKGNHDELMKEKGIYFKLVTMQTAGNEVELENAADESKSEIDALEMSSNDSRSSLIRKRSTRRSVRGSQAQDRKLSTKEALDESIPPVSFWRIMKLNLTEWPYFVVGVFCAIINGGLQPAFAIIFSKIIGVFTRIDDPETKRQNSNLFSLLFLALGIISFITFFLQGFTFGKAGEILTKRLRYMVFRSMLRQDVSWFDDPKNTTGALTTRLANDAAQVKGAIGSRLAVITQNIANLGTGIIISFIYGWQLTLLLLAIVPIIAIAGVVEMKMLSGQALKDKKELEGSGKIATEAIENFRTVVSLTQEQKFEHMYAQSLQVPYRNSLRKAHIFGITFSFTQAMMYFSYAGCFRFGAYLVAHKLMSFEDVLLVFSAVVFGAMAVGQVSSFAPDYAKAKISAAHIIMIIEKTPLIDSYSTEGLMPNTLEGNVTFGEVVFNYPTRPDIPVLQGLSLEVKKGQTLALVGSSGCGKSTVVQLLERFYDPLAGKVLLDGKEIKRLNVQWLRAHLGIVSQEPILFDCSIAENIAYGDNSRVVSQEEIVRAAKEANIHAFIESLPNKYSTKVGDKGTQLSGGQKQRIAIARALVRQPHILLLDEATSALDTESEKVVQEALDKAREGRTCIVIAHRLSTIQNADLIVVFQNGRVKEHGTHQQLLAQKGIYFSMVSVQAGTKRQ

Compound: COc1ccc(NC(=O)c2ccc(C(=N)N(C)C)cc2)c(C(=O)Nc2ccc(Cl)cn2)c1 [Compound A, [2-({4-[(dimethylamino)iminomethyl]phenyl}carbonylamino)-5-methoxyphenyl]-N-(5-chloro(2-pyridyl))carboxamide]
- p-glycoprotein substrate (p-glycoprotein): substrate of p-glycoprotein
- plasma concentrations of Compound A, dual treatment versus single treatment [1]: about two times higher
- inhibition at 0.03 µM [2]: -2%
- inhibition at 0.1 µM [2]: 4%
- inhibition at 0.3 µM [2]: 0.8%
- % Did not occlude (inhibition of rat thrombosis) ([3]; 0.03 μM Compound A): 30%
- Number of animals without occlusion ([3]; 0.03 μM Compound A): 3
- time to occlusion ([3]; 0.03 μM Compound A): 27.07
- % Did not occlude (inhibition of rat thrombosis) ([3]; 0.1 μM Compound A): 60%
- Number of animals without occlusion ([3]; 0.1 μM Compound A): 6
- time to occlusion ([3]; 0.1 μM Compound A): 52.66
- % Did not occlude (inhibition of rat thrombosis) ([3]; 0.3 μM Compound A): 90%
- Number of animals without occlusion ([3]; 0.3 μM Compound A): 9
- time to occlusion ([3]; 0.3 μM Compound A): 35.78
- % DNO (inhibition of rat thrombosis) ([3]; Compound A 0.03 μM iv infusion, aspirin 3 mg/kg iv bolus, or both): 30%
- TTO (Time to occlusion) ([3]; average for animals that occluded, Compound A 0.03 μM, aspirin 3 mg/kg, or both): 27.07 ± 7.36 min
- DNO (did not occlude) ([3]; number of 10 animals, Compound A 0.03 μM iv infusion, aspirin 3 mg/kg iv bolus, or both): 3
- % Inhibition of thrombin generation (thrombin generation; ASA donors, 7.8125 nM Compound A, normalized to Non-ASA at 0 nM): 24.6%
- % Inhibition of thrombin generation (thrombin generation; ASA donors, 15.625 nM Compound A, normalized to Non-ASA at 0 nM): 26.9%
- % Inhibition of thrombin generation (thrombin generation; ASA donors, 31.25 nM Compound A, normalized to Non-ASA at 0 nM): 33.4%
- % Inhibition of thrombin generation (thrombin generation; ASA donors, 62.5 nM Compound A, normalized to Non-ASA at 0 nM): 46.0%
- % Inhibition of thrombin generation (thrombin generation; ASA donors, 125 nM Compound A, normalized to Non-ASA at 0 nM): 64.7%
- % Inhibition of thrombin generation (thrombin generation; ASA donors, 250 nM Compound A, normalized to Non-ASA at 0 nM): 82.5%
- % Inhibition of thrombin generation (thrombin generation; ASA donors, 500 nM Compound A, normalized to Non-ASA at 0 nM): 94.6%
- % Inhibition of thrombin generation (thrombin generation; Non-ASA donors, 7.8125 nM Compound A): 3.2%
- % Inhibition of thrombin generation (thrombin generation; Non-ASA donors, 15.625 nM Compound A): 5.1%
- % Inhibition of thrombin generation (thrombin generation; Non-ASA donors, 31.25 nM Compound A): 12.2%
- % Inhibition of thrombin generation (thrombin generation; Non-ASA donors, 62.5 nM Compound A): 25.2%
- % Inhibition of thrombin generation (thrombin generation; Non-ASA donors, 125 nM Compound A): 55.1%
- % Inhibition of thrombin generation (thrombin generation; Non-ASA donors, 250 nM Compound A): 81.1%
- % Inhibition of thrombin generation (thrombin generation; Non-ASA donors, 500 nM Compound A): 96.0%
- Clinical significant nonmajor bleeds % ([4]; Compound A 15 mg bid): 0%
- Major Bleeds % ([4]; Compound A 15 mg bid): 0%
- VTE % ([4]; Compound A 15 mg bid oral, n = 69): 20%
- Clinical significant nonmajor bleeds % ([4]; Compound A 40 mg bid): 2.4%
- Major Bleeds % ([4]; Compound A 40 mg bid): 0%
- VTE % ([4]; Compound A 40 mg bid oral, n = 65): 15%
- inhibition of cytokine release (cytokine release): did not produce statistically significant inhibition of cytokine release
- diastolic blood pressure (DBP) compared to pre-dose values ([5]; Compound A 3 mg/kg as a single agent, oral): no statistical differences
- Lowest Diastolic Blood Pressure Post-Dosing [5, 6]: 92.57 mmHg
- Lowest Systolic Blood Pressure Post-Dosing [5, 6]: 150.32 mmHg
- Lowest Diastolic Blood Pressure Post-Dosing [5, 7]: 83.73 mmHg
- Lowest Systolic Blood Pressure Post-Dosing [5, 7]: 121.08 mmHg
- Lowest Diastolic Blood Pressure Post-Dosing [5, 8]: 80.52 mmHg
- Lowest Systolic Blood Pressure Post-Dosing [5, 8]: 101.93 mmHg
- Mean Area Under the Curve for Systolic Pressure (AUCP), Mean ± S.D. ([5]; following verapamil or placebo administration ([…]), relative to baseline): 782.7 ± 1297.8 mmHg * min.
- measures of blood pressure upon coadministration with verapamil ([5]; telemeterized dogs): did not change the measures of blood pressure
- Lowest Diastolic Blood Pressure Post-Dosing, Mean ± S.D. [5, 9]: 85.60 ± 6.24 mmHg
- Lowest Systolic Blood Pressure Post-Dosing, Mean ± S.D. [5, 9]: 124.44 ± 24.37 mmHg
